Patent US20120122820A1, “PRODRUGS AND THE USE THEREOF” (Bayer Schering Pharma Aktiengesellschaft, priority 2007, published 2012)
In brackets after ≈: the same amount, converted by molar mass. Structures can show the parent of a compound that is named as a salt.

What was measured:
[1] = Stability in buffer at various pH values; assay type: physicochemical
Experimental: 0.3 mg of the test substance is weighed into a 2 ml HPLC vial and 0.5 ml of acetonitrile or acetonitrile/DMSO (9:1) is added. The substance is dissolved by putting the sample vessel in an ultrasonic bath for about 10 seconds. Then 0.5 ml of the respective (buffer) solution is added, and the sample is again treated in the ultrasonic bath.
• pH 4: 1 liter of Millipore water is adjusted to pH 4.0 with 1 N hydrochloric acid; • pH 5: 0.096 mol of citric acid and 0.2 mol of sodium hydroxide ad 1 liter of water; • pH 7.4: 90.0 g of sodium chloride, 13.61 g of potassium dihydrogen phosphate and 83.35 g of 1 N sodium hydroxide solution are made up to 1 liter with water; this solution is then further diluted 1:10 with Millipore water. • pH 8: 0.013 mol of borax and 0.021 mol of hydrochloric acid ad 1 liter of water.
5 μl portions of the sample solution are analyzed by HPLC for their content of unchanged test substance, and of parent substance (A) produced, every hour over a period of 24 hours at 37° C. The percentage areas of the appropriate peaks are used for quantification.
HPLC method for Examples 1-21:
Agilent 1100 with DAD (G1314A), binary pump (G1312A), autosampler (G1329A), column oven (G1316A), thermostat (G1330A); column: Kromasil 100 C18, 60 mm×2.1 mm, 3.5 μm; column temperature: 30° C.; eluent A: water+5 ml of perchloric acid/liter, eluent B: acetonitrile; gradient: 0-1.0 min 98% A, 2% B; 1.0-9.0 min 2% A, 98% B; 9.0-13.0 min 2% A, 98% B; 13.0-13.5 min 98% A, 2% B; 13.5-15.0 min 98% A, 2% B; flow rate: 0.75 ml/min; UV detection: 210 nm.
HPLC method for Examples 22-40:
The ratios of the peak areas (F) at the respective time points in relation to the peak areas at the starting time are shown in Table 3 for representative exemplary embodiments: […]

[2] = i.v. pharmacokinetics in Wistar rats; assay type: in vivo; details: after i.v. bolus administration, male Wistar rats
Experimental: (§1) On the day before administration of the substance, a catheter for obtaining blood is implanted in the jugular vein of the experimental animals (male Wistar rats, body weight 200-250 g) under Isofluran® anesthesia.
(§2) On the day of the experiment, a defined dose of the test substance is administered as solution into the tail vein using a Hamilton® glass syringe (bolus administration, duration of administration <10 s). Blood samples (8-12 time points) are taken through the catheter sequentially over the course of 24 h after administration of the substance. Plasma is obtained by centrifuging the samples in heparinized tubes. Acetonitrile is added to a defined plasma volume per time point to precipitate proteins. After centrifugation, test substance and, where appropriate, known cleavage products of the test substance in the supernatant are determined quantitatively using a suitable LC/MS-MS method.
The measured plasma concentrations are used to calculate pharmacokinetic parameters of the test substance and of the active ingredient compound (A) liberated therefrom, such as AUC, Cmax, T1/2 (half-life) and CL (clearance).

[3] = tested on: heart rate of anesthetized rats; test: Influence on the heart rate of anesthetized rats; assay type: in vivo; details: maximum decrease in the first 30 min after i.v. bolus of 100 μg/kg of (A) or equivalent dosages; anesthetized male Wistar rats
Experimental: Male Wistar rats with a body weight above 250 g are employed. In the night before the experiment, the animals receive no feed but still have free access to drinking water. Preparation and investigations are carried out under Trapanal® anesthesia (100 mg/kg i.p.). Injection and infusion take place through a catheter in the jugular vein, and the blood pressure is recorded via a catheter in the femoral artery (transducer: Braun, Melsungen). After the preparation, the animals are connected to a continuous infusion of physiological saline solution to compensate fluid losses. Test substance or placebo solution are administered intravenously as bolus after an equilibration time of about 1 h. Heart rate and arterial blood pressure are recorded during the equilibration and over a period of at least 30 min after the bolus injection with the aid of a digital evaluation program.
Table 5 lists the maximum heart rate decrease in the first 30 min after an i.v. bolus of 100 μg/kg of the active substance (A) or of equivalent dosages of representative exemplary embodiments: […]

[4] = Oral pharmacokinetics in Wistar rats; assay type: in vivo; details: after oral administration (gavage), male Wistar rats
Experimental: as §1
as §2, with “stomach by gavage.” for “tail vein using a Hamilton® glass syringe (bolus administration, duration of administration <10 s).”
The measured plasma concentrations are used to calculate pharmacokinetic parameters of the test substance and of the active ingredient compound (A) liberated therefrom, such as AUC, Cmax, T1/2 (half-life).

[5] = Determination of the solubility (24 h shaking at room temperature, ultracentrifugation, HPLC); assay type: physicochemical; details: thermodynamic from solid
Experimental: The test substance is suspended in water or dilute hydrochloric acid (pH 4) [Examples 1-21] or in 5% strength aqueous dextrose solution [Examples 22-40]. This suspension is shaken at room temperature for 24 h. After ultracentrifugation at 224 000 g for 30 min, the supernatant is diluted with DMSO and analyzed by HPLC. A two-point calibration plot of the test compound in DMSO is used for quantification.
Agilent 1100 with DAD (G1315A), quat. pump (G1311A), autosampler CTC HTS PAL, degasser (G1322A) and column thermostat (G1316A); column: Phenomenex Gemini C18, 5 μm, 50 mm×2 mm; temperature: 40° C.; eluent A: water/phosphoric acid pH 2, eluent B: acetonitrile; flow rate: 0.7 ml/min; gradient: 0-0.5 min 85% A, 15% B; ramp 0.5-3 min 10% A, 90% B; 3-3.5 min 10% A, 90% B; ramp 3.5-4 min 85% A, 15% B; 4-5 min 85% A, 15% B.
Agilent 1100 with DAD (G1315A), quat. pump (G1311A), autosampler CTC HTS PAL, degasser (G1322A) and column thermostat (G1316A); column: VDSoptilab Kromasil 100 C18, 3.5 μm, 60 mm×2.1 mm; temperature: 30° C.; eluent A: water+5 ml of perchloric acid/liter, eluent B: acetonitrile; flow rate: 0.75 ml/min; gradient: 0-0.5 min 98% A, 2% B; ramp 0.5-4.5 min 10% A, 90% B; 4.5-6 min 10% A, 90% B; ramp 6.5-6.7 min 98% A, 2% B; 6.7-7.5 min 98% A, 2% B.

[6] = aqueous buffer, dilute hydrochloric acid (pH 4)
[7] = saline or isotonic, 5% strength aqueous dextrose solution

Compound	% test substance after 4 h [F(t = 4 h) × 100/F(t = 0 h)] ([1]; pH 4, 37° C.)	% test substance after 24 h [F(t = 24 h) × 100/F(t = 0 h)] ([1]; pH 4, 37° C.)	% test substance after 4 h [F(t = 4 h) × 100/F(t = 0 h)] ([1]; pH 8, 37° C.)	% test substance after 24 h [F(t = 24 h) × 100/F(t = 0 h)] ([1]; pH 8, 37° C.)	solubility at 24 h [5, 6]	% test substance after 4 h [F(t = 4 h) × 100/F(t = 0 h)] ([1]; pH 7.4, 37° C.)	% test substance after 24 h [F(t = 24 h) × 100/F(t = 0 h)] ([1]; pH 7.4, 37° C.)	solubility at 24 h [5, 7]	Detectability of the test substance (prodrug) in plasma [2]	Heart rate decrease [3]	Detectability of the test substance (prodrug) in plasma [4]
N#Cc1c(N)nc(SCc2csc(-c3ccc(Cl)cc3)n2)c(C#N)c1-c1ccc(OCCOP(=O)(O)O)cc1 [Example 1, 2-{4-[2-Amino-6-({[2-(4-chlorophenyl)-1,3-thiazol-4-yl]methyl}thio)-3,5-dicyanopyridin-4-yl]-phenoxy}ethyl dihydrogenphosphate]	100%	100%	100%	100%					no longer detectable in plasma even at the first measurement point	16%	
N#Cc1c(NC(=O)CCN)nc(SCc2csc(-c3ccc(Cl)cc3)n2)c(C#N)c1-c1ccc(OCCOC(=O)CCN)cc1 [Example 26, 2-{4-[2-(beta-Alanylamino)-6-({[2-(4-chlorophenyl)-1,3-thiazol-4-yl]methyl}thio)-3,5-dicyano-pyridin-4-yl]phenoxy}ethyl beta-alaninate dihydrochloride]	100%	100%				11%	2%	> 500 µg/mL			
CC(C)[C@H](N)C(=O)OCCOc1ccc(-c2c(C#N)c(NC(=O)CCCN(C)C)nc(SCc3csc(-c4ccc(Cl)cc4)n3)c2C#N)cc1 [Example 37, 2-{4-[2-({[2-(4-Chlorophenyl)-1,3-thiazol-4-yl]methyl}thio)-3,5-dicyano-6-{[4-(dimethylamino)-butanoyl]amino}pyridin-4-yl]phenoxy}ethyl L-valinate bistrifluoracetate]	100%	100%				97%	84%	160 µg/mL (≈ 218 µM)			
N#Cc1c(N)nc(SCc2csc(-c3ccc(Cl)cc3)n2)c(C#N)c1-c1ccc(OCCO)cc1 [compound (A), 2-amino-6-({[2-(4-chlorophenyl)-1,3-thiazol-4-yl]methyl}thio)-4-[4-(2-hydroxy-ethoxy)phenyl]pyridine-3,5-dicarbonitrile, reference compound]					< 1 µg/mL			< 0.1 µg/mL		24%	

Further lines, with some results ahead:

% test substance after 4 h [F(t = 4 h) × 100/F(t = 0 h)] ([1]; pH 4, 37° C.)	% test substance after 24 h [F(t = 24 h) × 100/F(t = 0 h)] ([1]; pH 4, 37° C.)	% test substance after 4 h [F(t = 4 h) × 100/F(t = 0 h)] ([1]; pH 8, 37° C.)	% test substance after 24 h [F(t = 24 h) × 100/F(t = 0 h)] ([1]; pH 8, 37° C.)	solubility at 24 h [5, 6]	% test substance after 4 h [F(t = 4 h) × 100/F(t = 0 h)] ([1]; pH 7.4, 37° C.)	% test substance after 24 h [F(t = 24 h) × 100/F(t = 0 h)] ([1]; pH 7.4, 37° C.)	solubility at 24 h [5, 7]	Compound	Detectability of the test substance (prodrug) in plasma [2]	Heart rate decrease [3]	Detectability of the test substance (prodrug) in plasma [4]
100%	100%	94%	68%					N#Cc1c(N)nc(SCc2csc(-c3ccc(Cl)cc3)n2)c(C#N)c1-c1ccc(OCCOC(=O)CN)cc1 [Example 5, 2-{4-[2-Amino-6-({[2-(4-chlorophenyl)-1,3-thiazol-4-yl]methyl}thio)-3,5-dicyanopyridin-4-yl]-phenoxy}ethyl glycinate]	no longer detectable in plasma even at the first measurement point	21%	no longer detectable in plasma even at the first measurement point
				57 µg/mL				N#Cc1c(N)nc(SCc2csc(-c3ccc(Cl)cc3)n2)c(C#N)c1-c1ccc(OCCOC(=O)CCC(=O)O)cc1 [Example 19, 4-(2-{4-[2-Amino-6-({[2-(4-chlorophenyl)-1,3-thiazol-4-yl]methyl}thio)-3,5-dicyanopyridin-4-yl]-phenoxy}ethoxy)-4-oxobutanoic acid hydrochloride]		18%	no longer detectable in plasma even at the first measurement point
100%	100%				100%	94%	> 500 µg/mL	N#Cc1c(N)nc(SCc2csc(-c3ccc(Cl)cc3)n2)c(C#N)c1-c1ccc(OCCOC(=O)[C@@H](N)CCCNC(=N)N)cc1 [Example 38, 2-{4-[2-Amino-6-({[2-(4-chlorophenyl)-1,3-thiazol-4-yl]methyl}sulfanyl)-3,5-dicyanopyridin-4-yl]-phenoxy}ethyl L-argininate trihydrochloride]			
100%	100%				0%	0%	> 500 µg/mL	N#Cc1c(N)nc(SCc2csc(-c3ccc(Cl)cc3)n2)c(C#N)c1-c1ccc(OCCOC(=O)[C@H](N)CCCN)cc1 [Example 39, 2-{4-[2-Amino-6-({[2-(4-chlorophenyl)-1,3-thiazol-4-yl]methyl}sulfanyl)-3,5-dicyanopyridin-4-yl]-phenoxy}ethyl D-ornithinate dihydrochloride]			
99%	94%				90%	53%	> 500 µg/mL	N#Cc1c(N)nc(SCc2csc(-c3ccc(Cl)cc3)n2)c(C#N)c1-c1ccc(OCCOC(=O)[C@@H](N)CN)cc1 [Example 40, 2-{4-[2-Amino-6-({[2-(4-chlorophenyl)-1,3-thiazol-4-yl]methyl}sulfanyl)-3,5-dicyanopyridin-4-yl]-phenoxy}ethyl-3-amino L-alaninate dihydrochloride]			
